Data reported in ChEMBL document CHEMBL1201862, “PubChem BioAssay data set” (2004).
The source made the active and inactive calls.

Columns and labels:
[1] = HEK293 cell cytotoxicity, dose response, cytotoxicity control, cherry-picks, set 5 (AID 1053117); assay type: functional, cell-based
[2] = biological target: Fructose-bisphosphate aldolase (Mycobacterium tuberculosis, UniProt P9WQA3); assay: Fluorescence-based biochemical high throughput dose response assay for inhibitors of the fructose-bisphosphate aldolase (FBA) of M. tuberculosis.; assay type: functional
Sequence of Fructose-bisphosphate aldolase (P9WQA3 whole entry): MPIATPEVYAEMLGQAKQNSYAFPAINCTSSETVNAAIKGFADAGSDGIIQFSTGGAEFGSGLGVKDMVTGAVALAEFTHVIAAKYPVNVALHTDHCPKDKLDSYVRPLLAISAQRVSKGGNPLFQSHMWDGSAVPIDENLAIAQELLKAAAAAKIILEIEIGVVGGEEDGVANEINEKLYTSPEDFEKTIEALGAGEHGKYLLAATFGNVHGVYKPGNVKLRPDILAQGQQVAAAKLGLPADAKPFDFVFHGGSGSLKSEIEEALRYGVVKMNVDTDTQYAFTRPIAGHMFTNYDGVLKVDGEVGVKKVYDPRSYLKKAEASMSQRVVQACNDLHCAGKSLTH

[3] = biological target: DNA repair protein RAD52 homolog (Homo sapiens, UniProt P43351); assay type: functional, biochemical
Sequence of DNA repair protein RAD52 homolog (P43351 whole entry, the tested form may be a part): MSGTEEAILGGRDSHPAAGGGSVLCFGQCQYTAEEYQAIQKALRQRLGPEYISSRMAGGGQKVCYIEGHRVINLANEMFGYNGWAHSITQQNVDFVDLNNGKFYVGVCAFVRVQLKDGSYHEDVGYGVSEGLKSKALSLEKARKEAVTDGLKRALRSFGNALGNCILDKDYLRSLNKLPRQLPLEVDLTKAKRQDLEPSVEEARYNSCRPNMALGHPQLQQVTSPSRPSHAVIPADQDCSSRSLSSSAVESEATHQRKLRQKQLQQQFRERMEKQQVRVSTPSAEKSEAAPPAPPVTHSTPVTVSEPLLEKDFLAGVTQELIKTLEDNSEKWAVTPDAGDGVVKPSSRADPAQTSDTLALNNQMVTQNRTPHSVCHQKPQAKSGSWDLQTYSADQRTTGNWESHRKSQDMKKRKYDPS

[4] = biological target: Arf-GAP with SH3 domain, ANK repeat and PH domain-containing protein 1 (Homo sapiens, UniProt Q9ULH1); assay type: functional;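 also: biochemical fluorescence polarization dose–response screen measuring inhibition of ASAP1; ASAP1 GAP domain stimulating GTP hydrolysis by truncated human ARF1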
Sequence of Arf-GAP with SH3 domain, ANK repeat and PH domain-containing protein 1 (Q9ULH1 whole entry, the tested form may be a part): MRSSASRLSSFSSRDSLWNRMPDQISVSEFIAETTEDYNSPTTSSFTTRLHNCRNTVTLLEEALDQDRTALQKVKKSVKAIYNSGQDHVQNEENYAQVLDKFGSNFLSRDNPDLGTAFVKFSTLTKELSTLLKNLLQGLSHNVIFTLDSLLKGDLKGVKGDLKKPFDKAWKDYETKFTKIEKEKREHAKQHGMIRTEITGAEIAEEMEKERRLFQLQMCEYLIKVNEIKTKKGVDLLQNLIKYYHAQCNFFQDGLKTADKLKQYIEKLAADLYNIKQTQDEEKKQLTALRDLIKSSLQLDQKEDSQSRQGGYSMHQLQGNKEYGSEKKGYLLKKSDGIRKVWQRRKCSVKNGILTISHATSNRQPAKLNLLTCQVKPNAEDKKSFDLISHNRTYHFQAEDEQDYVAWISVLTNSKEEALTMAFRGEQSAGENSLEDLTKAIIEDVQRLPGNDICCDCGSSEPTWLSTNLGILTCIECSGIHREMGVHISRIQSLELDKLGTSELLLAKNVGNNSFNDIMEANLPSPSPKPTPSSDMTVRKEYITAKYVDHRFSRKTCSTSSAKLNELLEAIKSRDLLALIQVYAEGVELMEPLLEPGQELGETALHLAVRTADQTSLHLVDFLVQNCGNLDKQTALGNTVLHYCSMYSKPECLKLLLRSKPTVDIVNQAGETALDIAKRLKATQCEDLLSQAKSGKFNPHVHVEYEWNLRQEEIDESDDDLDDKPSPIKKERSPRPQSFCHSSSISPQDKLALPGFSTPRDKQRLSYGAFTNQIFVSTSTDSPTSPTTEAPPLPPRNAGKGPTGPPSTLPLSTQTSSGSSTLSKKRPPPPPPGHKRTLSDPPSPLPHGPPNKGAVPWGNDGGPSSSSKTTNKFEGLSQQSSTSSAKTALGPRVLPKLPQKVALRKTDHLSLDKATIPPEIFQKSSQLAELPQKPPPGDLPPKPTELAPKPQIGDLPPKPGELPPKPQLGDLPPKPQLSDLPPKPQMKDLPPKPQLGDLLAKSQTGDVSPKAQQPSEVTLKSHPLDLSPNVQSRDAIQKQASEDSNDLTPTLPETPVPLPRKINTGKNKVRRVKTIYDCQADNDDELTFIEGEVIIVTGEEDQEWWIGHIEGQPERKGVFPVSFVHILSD

[5] = biological target: ADP-ribosylation factor GTPase-activating protein 1 (Rattus norvegicus, UniProt Q62848); assay: Fluorescence polarization-based biochemical high throughput dose response screening assay to identify inhibitors of ADP-ribosylation factor GTPase activating protein 1 (ARFGAP1).; assay type: functional
Sequence of ADP-ribosylation factor GTPase-activating protein 1 (Q62848 whole entry): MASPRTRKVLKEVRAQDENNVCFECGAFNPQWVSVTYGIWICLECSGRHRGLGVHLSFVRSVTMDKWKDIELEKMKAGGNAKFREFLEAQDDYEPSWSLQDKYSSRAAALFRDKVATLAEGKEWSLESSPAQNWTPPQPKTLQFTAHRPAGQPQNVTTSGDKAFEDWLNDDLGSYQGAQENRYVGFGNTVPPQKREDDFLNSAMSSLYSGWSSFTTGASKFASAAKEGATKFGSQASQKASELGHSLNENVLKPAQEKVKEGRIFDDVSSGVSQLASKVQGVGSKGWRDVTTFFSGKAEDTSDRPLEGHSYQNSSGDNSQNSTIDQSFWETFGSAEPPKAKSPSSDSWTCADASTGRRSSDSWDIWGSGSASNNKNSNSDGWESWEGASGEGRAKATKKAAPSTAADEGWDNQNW

[6] = biological target: Paired box protein Pax-8 (Homo sapiens, UniProt Q06710); assay: inhibitors of PAX8-driven TPO luciferase reporter, dose response, RMG-I cells, cherry-pick (AID 687027); assay type: functional, cell-based;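 also: luciferase reporter driven by Pax8 target thyroperoxidase promoter measured by SteadyGlo luminescence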
Sequence of Paired box protein Pax-8 (Q06710 whole entry): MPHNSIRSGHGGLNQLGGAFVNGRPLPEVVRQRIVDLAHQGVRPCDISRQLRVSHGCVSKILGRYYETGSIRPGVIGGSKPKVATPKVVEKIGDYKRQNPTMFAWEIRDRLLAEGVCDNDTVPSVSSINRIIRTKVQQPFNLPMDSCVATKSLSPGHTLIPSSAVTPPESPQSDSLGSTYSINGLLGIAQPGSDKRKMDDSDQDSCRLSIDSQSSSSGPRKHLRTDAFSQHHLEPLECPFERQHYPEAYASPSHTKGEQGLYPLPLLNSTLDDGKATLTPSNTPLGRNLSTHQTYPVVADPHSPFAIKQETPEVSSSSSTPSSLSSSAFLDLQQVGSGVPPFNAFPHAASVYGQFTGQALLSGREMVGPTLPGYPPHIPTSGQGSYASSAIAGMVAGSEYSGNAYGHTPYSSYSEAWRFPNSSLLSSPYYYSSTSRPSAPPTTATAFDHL

[7] = IGROV1 ovarian cancer cell cytotoxicity, dose response, PAX8 inhibitor project, plate reader, dry powder samples (AID 743043); assay type: functional, cell-based; settings: IGROV-1
[8] = cytotoxicity in OVCAR8 ovarian cancer cells, dose response, PAX8 project, cell-based, plate reader, dry powder samples (AID 743197); assay type: functional; settings: OVCAR-8
[9] = A2780 ovarian cancer cell cytotoxicity, dose response, cytotoxicity control, plate reader, dry powder samples (AID 743046); assay type: functional, cell-based
[10] = NIH:OVCAR-3 ovarian cancer cell cytotoxicity, dose response, PAX8 inhibitor project, plate reader, dry powder samples (AID 743044); assay type: functional, cell-based
[11] = cytotoxicity in HeLa cells, dose response, cytotoxicity control, cell-based, 24 h, dry powder, set 2 (AID 651774); assay type: functional
[12] = biological target: Albumin (Bos taurus, UniProt P02769); assay: Counterscreen for inhibitors of T-cell receptor (TCR)-CD3 interaction: Fluorescence-based biochemical high throughput dose response assay to identify inhibitors of T-cell receptor (TCR)-CD3 interaction using a TAMRA-labeled BSA probe.; assay type: functional
Sequence of Albumin (P02769 whole entry): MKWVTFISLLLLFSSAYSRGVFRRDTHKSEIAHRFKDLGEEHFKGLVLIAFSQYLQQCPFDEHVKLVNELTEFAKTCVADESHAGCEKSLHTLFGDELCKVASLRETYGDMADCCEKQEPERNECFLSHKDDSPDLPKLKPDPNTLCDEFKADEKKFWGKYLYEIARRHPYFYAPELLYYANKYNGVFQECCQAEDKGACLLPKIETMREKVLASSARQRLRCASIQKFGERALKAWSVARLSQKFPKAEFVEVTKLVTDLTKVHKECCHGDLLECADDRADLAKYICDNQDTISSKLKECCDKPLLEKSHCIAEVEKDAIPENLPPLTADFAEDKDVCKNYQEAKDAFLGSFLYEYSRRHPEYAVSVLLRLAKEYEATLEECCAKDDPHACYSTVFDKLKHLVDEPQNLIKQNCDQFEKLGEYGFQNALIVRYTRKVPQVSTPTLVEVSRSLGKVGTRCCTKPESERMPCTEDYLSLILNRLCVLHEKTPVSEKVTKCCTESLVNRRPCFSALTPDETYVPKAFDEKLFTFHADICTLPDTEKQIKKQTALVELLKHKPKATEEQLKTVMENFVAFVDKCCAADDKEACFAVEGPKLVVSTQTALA

[13] = inhibitors of PGC1a acetylation in cells, dose response, cell-based, cherry-picked samples (AID 720514); assay type: functional;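 also: potency may reflect raised or lowered acetylation signal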
[14] = HEK293T cytotoxicity, dose response, cytotoxicity control for miR-122 modulator project, cell-based, inhibitor set, cherry-pick, set 2 (AID 720697); assay type: functional
[15] = miR-122 activators in hepatoma reporter cells, dose response, cell-based, Huh7 psiCHECK-miR122, Renilla luciferase, cherry-picked (AID 651956); assay type: functional;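 also: huh7 hepatoma cells stably carrying a psiCHECK-2 miR-122 sensor plasmid; renilla luciferase signal reporting endogenous miR-122 activity after 48 h compound exposure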

**Q.** For O=S(=O)(c1ccccc1F)N1CC[C@H]2[C@H](CO)Nc3ccc(-c4cccc(F)c4)cc3[C@H]21, which AC50 [1] is on record?
**A.** 46.2 µM (active)

**Q.** For Cc1coc2c1c(C)cc1oc(=O)c(CC(=O)NCCCN3CCCC3=O)c(C)c12, which IC50 [2] is on record?
**A.** 1.43 µM (active)

**Q.** For CCN1CCN(Cc2ccc(C(=O)Nc3ccc(C)c(NCc4cnc(NC(=O)OC)cn4)c3)cc2C(F)(F)F)CC1, which AC50 [3] is on record?
**A.** 15.1 µM (active)

**Q.** Which IC50 [4] does the source give for COc1cccc(NC(=O)Cn2nnc(C(=O)Nc3cc(Cl)ccc3OC)c2N)c1 here?
**A.** 8.8 µM (active)

**Q.** And the IC50 [5]?
**A.** 5.04 µM (active)

**Q.** For C[C@@H]1CCCCO[C@H](CN(C)C(=O)C2CCCCC2)[C@@H](C)CN([C@@H](C)CO)C(=O)c2cc(NC(=O)Nc3ccc(F)cc3)ccc2O1, which AC50 [6] is on record?
**A.** 4.07 µM (active)

**Q.** And the AC50 [7]?
**A.** 63.4 µM (active)

**Q.** And the AC50 [8]?
**A.** 69.9 µM (active)

**Q.** What about the AC50 [9] of the same compound?
**A.** 48.1 µM (active)

**Q.** What about the AC50 [10] of the same compound?
**A.** 38.4 µM (active)

**Q.** With CCn1nnnc1NCc1ccc(N2CCCC2)cc1 as the compound, how does the AC50 [11] read?
**A.** > 70 µM (inactive)

**Q.** For Cc1ccc(N2C(=O)/C(=C\NNC(=O)C3COc4ccccc4O3)c3ccccc3C2=O)cc1 (configuration not stated), which IC50 [12] is on record?
**A.** > 94.1 µM (inactive)

**Q.** With CCCNC(=O)N(C)C[C@H]1Oc2cc(C#CCC(C)C)ccc2S(=O)(=O)N([C@@H](C)CO)C[C@H]1C as the compound, how does the AC50 [13] read?
**A.** 26.5 µM (active)

**Q.** What does the source list for CCC(=O)N1[C@H](CO)[C@H](c2ccccc2)[C@H]1CN(C(C)C)S(C)(=O)=O?
**A.** AC50 [14]: 525 nM (active); AC50 [15]: 35.4 µM (active)

**Q.** Which IC50 [2] does the source give for COc1ccc(S(=O)(=O)N(CCCN2CCCC2=O)Cc2cc3c(C)cc(C)cc3nc2O)cc1 here?
**A.** > 3.33 µM (active)

**Q.** With Cc1cc(C)c(-c2cc(NC(=O)COC(=O)c3ccc(NC(=O)CC#N)cc3)n(-c3ccccc3)n2)cc1C as the compound, how does the IC50 [12] read?
**A.** > 94.1 µM (inactive)
